Test results taken from PubChem BioAssay AID504473 (NMMLSC, 2011).
Calls of active or inactive are those of the source.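 Rule for the calls: active = GFP ratio to DMSO above 1.5 or below 0.66; inactive = the rest.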

How the values were obtained:
Experiment in all cases: expression changes of rapamycin-responsive GFP fusion proteins, S. cerevisiae, GFP-tagged clone panel, flow cytometry (AID 504473);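 note: median GFP fluorescence of the cells measured by high-throughput flow cytometry; test concentration not given here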
YCL064C = conditions: S. cerevisiae GFP-tagged strains, 3 h
YMR307W = conditions: S. cerevisiae GFP-tagged strains, 3 h
YCR005C = conditions: S. cerevisiae GFP-tagged strains, 3 h
YER081W = conditions: S. cerevisiae GFP-tagged strains, 3 h
[1] = target: General amino acid permease AGP1 (Saccharomyces cerevisiae S288c) (UniProt P25376); conditions: S. cerevisiae GFP-tagged strains, 3 h, YCL025C
Chain of General amino acid permease AGP1 (Saccharomyces cerevisiae S288c) (P25376 whole entry, looked up): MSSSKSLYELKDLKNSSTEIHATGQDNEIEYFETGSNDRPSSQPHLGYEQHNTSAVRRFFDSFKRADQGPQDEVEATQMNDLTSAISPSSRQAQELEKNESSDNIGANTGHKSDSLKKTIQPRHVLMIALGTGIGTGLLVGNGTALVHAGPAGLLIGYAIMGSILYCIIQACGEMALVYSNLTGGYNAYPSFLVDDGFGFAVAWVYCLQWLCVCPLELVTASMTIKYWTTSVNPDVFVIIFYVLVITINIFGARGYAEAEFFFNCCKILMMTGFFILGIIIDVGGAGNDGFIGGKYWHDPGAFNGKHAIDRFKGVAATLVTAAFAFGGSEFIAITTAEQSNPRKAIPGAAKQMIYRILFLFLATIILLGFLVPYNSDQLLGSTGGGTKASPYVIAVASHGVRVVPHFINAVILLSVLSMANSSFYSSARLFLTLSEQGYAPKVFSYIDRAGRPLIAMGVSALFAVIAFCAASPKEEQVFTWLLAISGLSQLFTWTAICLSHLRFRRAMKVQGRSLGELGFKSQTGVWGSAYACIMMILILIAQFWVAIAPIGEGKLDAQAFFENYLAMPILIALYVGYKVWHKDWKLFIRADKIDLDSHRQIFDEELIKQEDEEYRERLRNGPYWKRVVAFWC

YLR185W = conditions: S. cerevisiae GFP-tagged strains, 3 h
YLR237W = conditions: S. cerevisiae GFP-tagged strains, 3 h
YEL060C = conditions: S. cerevisiae GFP-tagged strains, 3 h
YLR109W = conditions: S. cerevisiae GFP-tagged strains, 3 h
YBR208C = conditions: S. cerevisiae GFP-tagged strains, 3 h
YMR105C = conditions: S. cerevisiae GFP-tagged strains, 3 h
YKR039W = conditions: S. cerevisiae GFP-tagged strains, 3 h
YML034W = conditions: S. cerevisiae GFP-tagged strains, 3 h
YFR031C-A = conditions: S. cerevisiae GFP-tagged strains, 3 h
YIL051C = conditions: S. cerevisiae GFP-tagged strains, 3 h
YPL131W = conditions: S. cerevisiae GFP-tagged strains, 3 h
YLL026W = conditions: S. cerevisiae GFP-tagged strains, 3 h
YDR399W = conditions: S. cerevisiae GFP-tagged strains, 3 h
YCR002C = conditions: S. cerevisiae GFP-tagged strains, 3 h
YER156C = conditions: S. cerevisiae GFP-tagged strains, 3 h
YLR287C-A = conditions: S. cerevisiae GFP-tagged strains, 3 h
YDR070C = conditions: S. cerevisiae GFP-tagged strains, 3 h
YNL015W = conditions: S. cerevisiae GFP-tagged strains, 3 h
YML004C = conditions: S. cerevisiae GFP-tagged strains, 3 h
YAL061W = conditions: S. cerevisiae GFP-tagged strains, 3 h
YPR184W = conditions: S. cerevisiae GFP-tagged strains, 3 h
YPL111W = conditions: S. cerevisiae GFP-tagged strains, 3 h
YKL103C = conditions: S. cerevisiae GFP-tagged strains, 3 h
YDL130W = conditions: S. cerevisiae GFP-tagged strains, 3 h
YHR141C = conditions: S. cerevisiae GFP-tagged strains, 3 h
YPL220W = conditions: S. cerevisiae GFP-tagged strains, 3 h
YGR121C = conditions: S. cerevisiae GFP-tagged strains, 3 h
YMR120C = conditions: S. cerevisiae GFP-tagged strains, 3 h
YOR136W = conditions: S. cerevisiae GFP-tagged strains, 3 h
YOR375C = conditions: S. cerevisiae GFP-tagged strains, 3 h
YBR248C = conditions: S. cerevisiae GFP-tagged strains, 3 h
YER117W = conditions: S. cerevisiae GFP-tagged strains, 3 h
YHR087W = conditions: S. cerevisiae GFP-tagged strains, 3 h
YDL205C = conditions: S. cerevisiae GFP-tagged strains, 3 h
YHR203C = conditions: S. cerevisiae GFP-tagged strains, 3 h
YMR251W-A = conditions: S. cerevisiae GFP-tagged strains, 3 h
YBL087C = conditions: S. cerevisiae GFP-tagged strains, 3 h
YHR018C = conditions: S. cerevisiae GFP-tagged strains, 3 h
YAL060W = conditions: S. cerevisiae GFP-tagged strains, 3 h
YJL144W = conditions: S. cerevisiae GFP-tagged strains, 3 h
YOR182C = conditions: S. cerevisiae GFP-tagged strains, 3 h
YLR058C = conditions: S. cerevisiae GFP-tagged strains, 3 h
YML128C = conditions: S. cerevisiae GFP-tagged strains, 3 h

CNc1nc(N)c([N+](=O)[O-])c(Nc2ccccc2OC)n1
GFP ratio to DMSO (YCL064C): 0.707 (inactive)
GFP ratio to DMSO (YMR307W): 0.757 (inactive)
GFP ratio to DMSO (YCR005C): 0.783 (inactive)
GFP ratio to DMSO (YER081W): 0.632
GFP ratio to DMSO [1]: 0.804 (inactive)
GFP ratio to DMSO (YLR185W): 1.38 (inactive)
GFP ratio to DMSO (YLR237W): 3.5
GFP ratio to DMSO (YEL060C): 0.535
GFP ratio to DMSO (YLR109W): 0.271
GFP ratio to DMSO (YBR208C): 0.657 (inactive)
GFP ratio to DMSO (YMR105C): 0.849 (inactive)
GFP ratio to DMSO (YKR039W): 1.41 (inactive)
GFP ratio to DMSO (YML034W): 0.676 (inactive)
GFP ratio to DMSO (YFR031C-A): 0.381
GFP ratio to DMSO (YIL051C): 0.669 (inactive)
GFP ratio to DMSO (YPL131W): 0.657 (inactive)
GFP ratio to DMSO (YLL026W): 0.761 (inactive)
GFP ratio to DMSO (YDR399W): 2.04
GFP ratio to DMSO (YCR002C): 0.541
GFP ratio to DMSO (YER156C): 0.819 (inactive)
GFP ratio to DMSO (YLR287C-A): 0.309
GFP ratio to DMSO (YDR070C): 0.503
GFP ratio to DMSO (YNL015W): 1.84
GFP ratio to DMSO (YML004C): 0.689 (inactive)
GFP ratio to DMSO (YAL061W): 0.668 (inactive)
GFP ratio to DMSO (YPR184W): 0.669 (inactive)
GFP ratio to DMSO (YPL111W): 0.779 (inactive)
GFP ratio to DMSO (YKL103C): 0.755 (inactive)
GFP ratio to DMSO (YDL130W): 0.302
GFP ratio to DMSO (YHR141C): 1.25 (inactive)
GFP ratio to DMSO (YPL220W): 0.579
GFP ratio to DMSO (YGR121C): 0.737 (inactive)
GFP ratio to DMSO (YMR120C): 0.433
GFP ratio to DMSO (YOR136W): 0.793 (inactive)
GFP ratio to DMSO (YOR375C): 0.81 (inactive)
GFP ratio to DMSO (YBR248C): 0.723 (inactive)
GFP ratio to DMSO (YER117W): 2.43
GFP ratio to DMSO (YHR087W): 1.71
GFP ratio to DMSO (YDL205C): 0.742 (inactive)
GFP ratio to DMSO (YHR203C): 0.792 (inactive)
GFP ratio to DMSO (YMR251W-A): 0.286
GFP ratio to DMSO (YBL087C): 1.71
GFP ratio to DMSO (YHR018C): 0.649
GFP ratio to DMSO (YAL060W): 0.645
GFP ratio to DMSO (YJL144W): 7.28
GFP ratio to DMSO (YOR182C): 3.17
GFP ratio to DMSO (YLR058C): 0.606
GFP ratio to DMSO (YML128C): 0.697 (inactive)
